Results: patent publication US10030016B2 (Sunesis Pharmaceuticals, Inc., priority 2009, dated 2018)
Where a name gives a salt, the structure may show the parent alone. Read-outs that look alike come from different tables or passages of the source.

How the values were obtained:
PDK1 = PDK1 (Homo sapiens (Human), UniProt O15530); experiment: PDK1 kinase assay (coupled PDK1/AKT/FAM-crosstide assay, IMAP fluorescence polarization); format: biochemical
Procedure, shortened: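 GST-tagged human PDK1 (aa 51-359, 0.75 nM) from insect cells activated unphosphorylated GST-AKT2 (aa 140-467–PIFtide fusion, 10 nM), which phosphorylated 100 nM FAM-crosstide; 40 μM ATP, pH 7.2 Tris/MgCl2, 30 min at 25° C. IMAP fluorescence polarization read-out; ΔmP versus compound concentration fitted with a 4-parameter curve.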

[1] = test system: phospho-akt (Thr308) in PC-3 cells; experiment: Inhibition of phospho-akt (Thr308) in PC-3 cells, MSD phospho-akt 308 ELISA kit; format: cell-based; conditions: 2 hours, no serum, read-out: EC50
Procedure, shortened: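 PC-3 cells were seeded overnight in growth medium with 10% FBS, then exposed to compound serially diluted threefold in serum-free medium for 2 hours. Lysates were captured overnight at 4 degrees on MSD plates and phospho-Akt Thr308 was detected electrochemiluminescently, against DMSO high and 5 μM wortmannin low controls.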

[2] = Homo sapiens, inhibition of P308 Akt in PC-3 cells using MSD
[3] = inhibition of phospo-PDK1 in vitro
[4] = Homo sapiens, inhibition of P308 Akt in PC-3 cells, MSD

Chain of PDK1 (O15530 51-359): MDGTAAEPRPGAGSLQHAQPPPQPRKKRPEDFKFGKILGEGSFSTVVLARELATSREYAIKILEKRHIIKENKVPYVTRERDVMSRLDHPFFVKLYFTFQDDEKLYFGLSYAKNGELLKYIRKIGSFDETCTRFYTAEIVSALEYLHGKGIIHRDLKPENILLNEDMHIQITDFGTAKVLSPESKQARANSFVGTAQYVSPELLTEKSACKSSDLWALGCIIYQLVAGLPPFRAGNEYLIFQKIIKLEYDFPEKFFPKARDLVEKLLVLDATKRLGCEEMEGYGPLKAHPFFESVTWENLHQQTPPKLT

Row | Structure (SMILES) | IC50 (PDK1; inhibition of PDK1 in vitro) | EC50 [1, 2] | IC50 (PDK1; [3]) | EC50 [1, 4] | EC50 ([1]; inhibition of P308 Akt in PC-3 cells, MSD)
1 | C[C@H](NC(=O)c1cc(C#N)cnc1NCc1ncc(-c2cnc3[nH]ncc3c2)cn1)c1ccc(F)cc1 [Example 64, 5-Cyano-N-[(S)-1-(4-fluoro-phenyl)-ethyl]-2-{[5-(1H-pyrazolo[3,4-b]pyridin-5-yl)-pyrimidin-2-ylmethyl]-amino}-nicotinamide] | > 5000 nM | > 10000 nM |  |  | 
2 | C[C@H](NC(=O)c1cc(F)cnc1NCc1ccc(-c2ccc3ncnc(N)c3c2)s1)c1ccc(F)c(F)c1 [Example 7.13, 2-({[5-(4-aminoquinazolin-6-yl)thiophen-2-yl]methyl}amino)-N-[(1S)-1-(3,4-difluorophenyl)ethyl]-5-fluoropyridine-3-carboxamide] |  |  | 100 to 1000 nM | < 1000 nM | 
3 | C[C@H](NC(=O)c1cc(C#N)cnc1NCc1ccc(-c2cnc3c(c2)OCCN3)cc1)c1ccc(F)cc1 [Example 137, (S)-5-cyano-2-(4-(3,4-dihydro-2H-pyrido [3,2-b][1,4]oxazin-7-yl)benzylamino)-N-(1-(4-fluorophenyl)ethyl)nicotinamide] | < 100 nM | 1000 to 10000 nM |  |  | 
4 | Cn1cc(-c2ccc(CNc3ncc(C(F)(F)F)cc3C(=O)Nc3ccc(F)cc3)cc2)c2c(N)ncnc21 [Example 323, 2-(4-(4-amino-7-methyl-7H-pyrrolo[2,3-d]pyrimidin-5-yl)benzylamino)-N-(4-fluorophenyl)-5-(trifluoromethyl)nicotinamide] | < 100 nM | < 1000 nM |  |  | 
5 | C[C@H](NC(=O)c1nc(C#N)cnc1N[C@H](C)c1ccc(-c2cnc3[nH]nc(N)c3c2)cc1)c1ccc(F)c(F)c1 [Example 42, 3-((R)-1-(4-(3-amino-1H-pyrazolo[3,4-b]pyridin-5-yl)phenyl)ethylamino)-6-cyano-N—((S)-1-(3,4-difluorophenyl)ethyl)pyrazine-2-carboxamide] | < 100 nM | < 1000 nM |  |  | 
6 | CNC(=O)c1cc(S(=O)(=O)NCCCN(C)C)cnc1NCc1ccc(-c2ccc3ncnc(N)c3c2)s1 [Example 341] | > 5000 nM | > 10000 nM |  |  | 
7 | C[C@H](NC(=O)c1cc(C#N)cnc1N[C@H](C)c1ccc(-c2cn(C)c3ncnc(N)c23)cc1)c1ccc(F)cc1 [Example 434, 2-{(R)-1-[4-(4-Amino-7-methyl-7H-pyrrolo[2,3-d]pyrimidin-5-yl)-phenyl]-ethylamino}-5-cyano-N-[(S)-1-(4-fluoro-phenyl)-ethyl]-nicotinamide] | < 100 nM | < 1000 nM |  |  | 
8 | Nc1n[nH]c2ncc(-c3ccc(CNc4nccc5ncn(Cc6ccc(F)c(F)c6)c(=O)c45)cc3)cc12 [Example 40, 5-(4-(3-amino-1H-pyrazolo[3,4-b]pyridin-5-yl)benzylamino)-3-(3,4-difluorobenzyl)pyrido[4,3-d]pyrimidin-4(3H)-one] |  |  | < 100 nM | < 1000 nM | 
9 | CNC(=O)c1cc(S(=O)(=O)NC(C)(C)C)cnc1NCc1ccc(-c2ccc3ncnc(N)c3c2)s1 [Example 8.6.18, 2-(((5-(4-aminoquinazolin-6-yl)thiophen-2-yl)methyl)amino)-5-(N-t-butylsulfamoyl)-N-methylnicotinamide] |  |  | > 5000 nM | 1000 to 10000 nM | 
10 | Nc1ncc(-c2ccc(CNc3ncc(C(F)(F)F)cc3C(=O)Nc3ccc(F)cc3)cc2)nc1N1CCC[C@H](N)C1 [Example 196] | < 100 nM | < 1000 nM |  |  | 
11 | CCC(C)NS(=O)(=O)c1cnc(NCc2ccc(-c3ccc4ncnc(N)c4c3)s2)c(C(=O)NCc2ccc(F)c(F)c2)c1 (stereo not drawn) [Example 8.7.10, 2-({[5-(4-aminoquinazolin-6-yl)thiophen-2-yl]methyl}amino)-5-(butan-2-ylsulfamoyl)-N-(3,4-difluorobenzyl)pyridine-3-carboxamide] |  |  | 100 to 1000 nM | 1000 to 10000 nM | 
12 | C[C@H](NC(=O)c1cc(C#N)cnc1NCc1ccc(-c2ccc(N)nc2)cc1)c1ccc(F)cc1 [Example 106, (S)-2-(4-(6-aminopyridin-3-yl)benzylamino)-5-cyano-N-(1-(4-fluorophenyl)ethyl) nicotinamide] | < 100 nM | < 1000 nM |  |  | 
13 | COCCCn1cc(-c2ccc(CNc3ncc(C#N)nc3C(=O)N[C@@H](C)c3ccc(F)c(F)c3)cc2)c2c(N)ncnc21 [Example 317, (S)-3-(4-(4-amino-7-(3-methoxypropyl)-7H-pyrrolo[2,3-d]pyrimidin-5-yl)benzylamino)-6-cyano-N-(1-(3,4-difluoro-phenyl)ethyl)pyrazine-2-carboxamide] | < 100 nM | < 1000 nM |  |  | 
14 | Nc1ncnc2ccc(-c3ccc(CNc4ncccc4C(=O)NCc4ccc(F)c(F)c4F)s3)cc12 [Example 3.16, 2-({[5-(4-aminoquinazolin-6-yl)thiophen-2-yl]methyl}amino)-N-(2,3,4-trifluorobenzyl)pyridine-3-carboxamide (TFA salt)] |  |  | < 100 nM | 1000 to 10000 nM | 
15 | C[C@H](NC(=O)c1cccnc1NCc1ccc(-c2ccc3ncnc(NCCN)c3c2)s1)c1ccc(F)cc1 [Example 2.15, (S)-2-(((5-(4-(2-aminoethylamino)quinazolin-6-yl)thiophen-2-yl)methyl)amino)-N-(1-(4-fluorophenyl)ethyl)nicotinamide] |  |  | 100 to 1000 nM | 1000 to 10000 nM | 
16 | C[C@H](NC(=O)c1cc(C#N)cnc1NCc1ccc(-c2ccc(N)nc2)cc1)c1ccc(F)c(F)c1 [Example 367, (S)-2-(4-(6-aminopyridin-3-yl)benzylamino)-5-cyano-N-(1-(3,4-difluorophenyl)ethyl) nicotinamide] | < 100 nM | < 1000 nM |  |  | 
17 | C[C@H](NC(=O)c1cc(C#N)cnc1NCc1ccc(-c2cnc3[nH]c(=O)[nH]c3c2)cc1F)c1ccc(F)cc1 [Example 126, (S)-5-cyano-2-(2-fluoro-4-(2-oxo-2,3-dihydro-1H-imidazo[4,5-b]pyridin-6-yl)benzyl-amino)-N-(1-(4-fluorophenyl)ethyl) nicotinamide] | < 100 nM | < 1000 nM |  |  | 
18 | COCCNC(=O)c1c(C)[nH]c(/C=C2\C(=O)Nc3cc(/C=C/CNc4ncccc4C(=O)NCc4ccc(F)c(F)c4)ccc32)c1C [Example 15.19, N-(3,4-difluorobenzyl)-2-((E)-3-((Z)-3-((4-(2-methoxyethylcarbamoyl)-3,5-dimethyl-1H-pyrrol-2-yl]-methylene)-2-oxoindolin-6-yl)allylamino) nicotinamide] |  |  | < 100 nM | < 1000 nM | 
19 | CC(C)Oc1cc(CNc2ncccc2C(=O)NCC(F)(F)F)cc(-c2c[nH]c3ncc(C(=O)NC4CC4)cc23)c1 [Example 4.1.5, N-cyclopropyl-3-{3-(propan-2-yloxy)-5-[({3-[(2,2,2-trifluoroethyl)carbamoyl]pyridin-2-yl}amino)methyl]phenyl}-1H-pyrrolo[2,3-b] pyridine-5-carboxamide] |  |  | > 5000 nM | > 10000 nM | 
20 | C#CCNC(=O)c1cccnc1NCc1cc(OC(C)C)cc(-c2c[nH]c3ncc(C(=O)NC4CC4)cc23)c1 [Example 4.1.16, N-cyclopropyl-3-[3-(propan-2-yloxy)-5-({[3-(prop-2-yn-1-ylcarbamoyl)pyridin-2-yl]amino}methyl)phenyl]-1H-pyrrolo[2,3-b] pyridine-5-carboxamide] |  |  | 100 to 1000 nM | 1000 to 10000 nM | 
21 | CN(C)C(=O)c1cnc(NCc2ccc(-c3ccc4ncnc(N)c4c3)s2)c(C(=O)NCc2ccc(F)c(F)c2)c1 [Example 7.24.4, 2-({[5-(4-aminoquinazolin-6-yl)thiophen-2-yl]methyl}amino)-N^3-(3,4-difluorobenzyl)-N^5,N^5-dimethylpyridine-3,5-dicarboxamide] |  |  | < 100 nM | < 1000 nM | 
22 | CCCc1cnc(NCc2ccc(-c3ccc4ncnc(N)c4c3)s2)c(C(=O)NCc2ccc(F)c(F)c2)n1 [Ex. 10.7, 3-({[5-(4-aminoquinazolin-6-yl)thiophen-2-yl]methyl}amino)-N-(3,4-difluorobenzyl)-6-propylpyrazine-2-carboxamide] |  |  | 1000 to 5000 nM | 1000 to 10000 nM | 
23 | C[C@H](NC(=O)c1cc(C#N)cnc1NCc1ccc(-c2cccc3n[nH]c(=O)n23)cc1)c1ccc(F)cc1 [Example 144, (S)-5-cyano-N-(1-(4-fluorophenyl)ethyl)-2-(4-(3-oxo-2,3-dihydro-[1,2,4]triazolo[4,3-a]pyridin-5-yl)benzyl-amino)nicotinamide] | > 5000 nM | > 10000 nM |  |  | 
24 | C[C@H](NC(=O)c1cccnc1NCc1ccc(-c2cnc3[nH]c(=O)[nH]c3c2)cc1)c1ccc(F)c(F)c1 [Example 366, (S)-N-(1-(3,4-difluorophenyl)ethyl)-2-(4-(2-oxo-2,3-dihydro-1H-imidazo[4,5-b]pyridin-6-yl)benzylamino) nicotinamide] | < 100 nM | < 1000 nM |  |  | 
25 | COc1cnc(NCc2ccc(-c3ccc4ncnc(N)c4c3)s2)c(C(=O)NCc2ccc(F)c(F)c2)c1 [Example 8.1.2, 2-({[5-(4-aminoquinazolin-6-yl)thiophen-2-yl]methyl}amino)-N-(3,4-difluorobenzyl)-5-methoxypyridine-3-carboxamide] |  |  | < 100 nM | < 1000 nM | 
26 | C[C@H](NC(=O)c1cc(C#N)cnc1NCc1ccc(-c2cnc(N)c(C(=O)NCCCS(C)(=O)=O)n2)cc1)c1ccc(F)cc1 [Example 208] | < 100 nM | < 1000 nM |  |  | 
27 | C[C@H](NC(=O)c1cc(C#N)cnc1NCc1ccc(-c2cnc3[nH]ncc3c2)cc1)c1ccc(F)cc1 [Example 2.36, 5-Cyano-N-[(S)-1-(4-fluoro-phenyl)-ethyl]-2-[4-(1H-pyrazolo[3,4-]pyridin-5-yl)-benzylamino]-nicotinamide] |  |  | < 100 nM |  | < 1000 nM
